Test results taken from patent US8759318B2, “Phosphoramidate derivatives of guanosine nucleoside compounds for treatment of viral infections” (Inhibitex, Inc., priority 2009, dated 2014).

Assays:
[1] = Mouse PK: 2'-C-methylguanosine triphosphate levels in liver; details: 2'-C-methylguanosine triphosphate in mouse liver, 50 mg/kg PO
[2] = test system: HCV replicon (Genotype 1b); assay: Luciferase genotype 1b replicon potency assay; details: Hepatitis C virus, GETYPE1B, read-out: IC50 μM, HCV genotype 1b luciferase replicon, Renilla luciferase reporter
Huh7 replicon cells = assay: Cytotoxicity assay (CellTiter-Glo); details: read-out: CC50 μM; 72 h, CellTiter-Glo
[3] = mouse, in vivo, po, 50 mg/kg

COc1nc(N)nc2c1ncn2[C@@H]1O[C@H](CO)[C@@H](O)[C@@]1(C)O [Example 2, (2R,3R,4R,5R)-2-(2-amino-6-methoxy-9H-purin-9-yl)-5-(hydroxymethyl)-3-methyltetrahydrofuran-3,4-diol]
AUC0-6 [1]: 8748 ng·h/g | AUC0-24 [1]: 30618 ng·h/g | IC50 [2]: 3.1 µM | CC50 (Huh7 replicon cells): > 100 µM | Multiple Above IC90 at Cmax [3]: 25.1
